We go through five molecules from patent US12227509B2, “Dihydropyrazolopyrazinone derivative having MGAT2 inhibitory activity” (Shionogi & Co., Ltd., priority 2019, dated 2025).

Each structure is given as a SMILES string. In brackets after ≈: the same amount, converted by molar mass.

The nature of data set [1]: Metabolism stability test (human liver microsomes). It is filed as in vitro ADME. As to conditions: compound concentration 0.5 μmol/L, 37° C., 30 minutes, NADPH. The method, then:
Using commercially available pooled human hepatic microsomes, the compound of the present invention was reacted for a constant time, a remaining rate was calculated by comparing a reacted sample and an unreacted sample, thereby, a degree of metabolism of the compound of the present invention in liver was assessed.
A reaction was performed (oxidative reaction) at 37° C. for 0 minute or 30 minutes in the presence of 1 mmol/L NADPH in 0.2 mL of a buffer (50 mmol/L Tris-HCl pH 7.4, 150 mmol/L potassium chloride, 10 mmol/L magnesium chloride) containing 0.5 mg protein/mL of human liver microsomes. After the reaction, 50 μL of the reaction solution was added to 100 μL of a methanol/acetonitrile=1/1 (v/v) solution, mixed and centrifuged at 3000 rpm for 15 minutes. The compound of the present invention in the supernatant was quantified by LC/MS/MS, and a remaining amount of the compound of the present invention after the reaction was calculated, letting a compound amount at 0 minute reaction time to be 100%.
In general terms: Microsomes from liver hold many membrane-bound enzymes, among them those of drug oxidation.

A short description of data set [2]: Solubility test (1% DMSO addition, pH 6.8 artificial intestinal juice). It is filed as physicochemical. The settings on record: kinetic from dmso stock, 16 hours at 25° C. The method, then:
The solubility of the compound of the present invention was determined under 1% DMSO addition conditions. 10 mmol/L solution of the compound was prepared with DMSO, and 6 μL of the solution of the compound of the present invention was added to 594 μL of pH 6.8 artificial intestinal juice (118 mL of 0.2 mol/L NaOH test solution and water were added to 250 mL of 0.2 mol/L potassium dihydrogen phosphate test solution to reach 1000 mL). The mixture was left standing for 16 hours at 25° C., and the mixture was vacuum-filtered. The filtrate was two-fold diluted with methanol/water=1/1 (V/V), and the compound concentration in the filtrate was measured with HPLC or LC/MS/MS by the absolute calibration method. The dilution concentration and the dilution solvent were changed as necessary.

A further data set deals with CYP1A2 (Homo sapiens (Human), UniProt P05177). Nature of the data set: CYP inhibition test, CYP1A2. It is filed as in vitro ADME. The settings on record: pooled human liver microsomes; 7-ethoxyresorufin O-deethylation; given as 'five kinds'. The source says: (§1) Using commercially available pooled human hepatic microsome, and employing, as markers, 7-ethoxyresorufin O-deethylation (CYP1A2), tolbutamide methyl-hydroxylation (CYP2C9), mephenytoin 4'-hydroxylation (CYP2C19), dextromethorphan 0-demethylation (CYP2D6), and terfenadine hydroxylation (CYP3A4) as typical substrate metabolism reactions of human main five CYP enzyme forms (CYP1A2, 2C9, 2C19, 2D6, 3A4), an inhibitory degree of each metabolite production amount by the compound of the present invention was assessed. The reaction conditions are as follows: substrate, 0.5 μmol/L ethoxyresorufin (CYP1A2), 100 μmol/L tolbutamide (CYP2C9), 50 μmol/L S-mephenitoin (CYP2C19), 5 μmol/L dextromethorphan (CYP2D6), 1 μmol/L terfenedine (CYP3A4); reaction time, 15 minutes; reaction temperature, 37° C.; enzyme, pooled human liver microsomes 0.2 mg protein/mL; concentrations of the compound of the present invention, 1, 5, 10, 20 μmol/L (four points). As a reaction solution, each five kinds of substrates, human liver microsomes, or compound of the present invention in 50 mmol/L Hepes buffer were added to a 96-well plate at the composition as described above, and NADPH, as a cofactor was added to initiate metabolism reactions. After the incubation at 37° C. for 15 minutes, a methanol/acetonitrile=1/[…]) solution was added to stop the reaction. After the centrifugation at 3000 rpm for 15 minutes, resorufin (CYP1A2 metabolite) in the supernatant was quantified by a fluorescent multilabel counter or LC/MS/MS, and tolbutamide hydroxide (CYP2C9 metabolite), mephenytoin 4' hydroxide (CYP2C19 metabolite), dextrorphan (CYP2D6 metabolite), and terfenadine alcohol (CYP3A4 metabolite) were quantified by LC/MS/MS. Addition of only DMSO being a solvent dissolving a drug to a reaction system was adopted as a control (100%). Remaining activity (%) was calculated. IC50 was calculated by reverse presumption by a logistic model using the concentration and an inhibition rate.
Chain of CYP1A2 (P05177 whole entry): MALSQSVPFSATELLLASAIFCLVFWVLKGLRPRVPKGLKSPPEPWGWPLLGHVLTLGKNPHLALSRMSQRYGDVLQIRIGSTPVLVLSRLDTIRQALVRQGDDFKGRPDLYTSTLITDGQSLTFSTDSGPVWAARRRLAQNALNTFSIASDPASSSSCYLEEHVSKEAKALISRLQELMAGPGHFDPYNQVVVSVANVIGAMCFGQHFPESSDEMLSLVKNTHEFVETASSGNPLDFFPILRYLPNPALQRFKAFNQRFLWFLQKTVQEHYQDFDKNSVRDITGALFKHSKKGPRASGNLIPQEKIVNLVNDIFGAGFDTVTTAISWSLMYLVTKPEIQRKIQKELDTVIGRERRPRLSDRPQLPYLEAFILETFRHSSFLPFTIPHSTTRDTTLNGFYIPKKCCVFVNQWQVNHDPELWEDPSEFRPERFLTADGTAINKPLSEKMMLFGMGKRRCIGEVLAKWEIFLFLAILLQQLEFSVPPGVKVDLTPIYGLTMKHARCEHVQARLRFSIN

The target of another data set is CYP2C9 (Homo sapiens (Human), UniProt P11712). As to the kind of experiment: CYP inhibition test, CYP2C9. It is filed as in vitro ADME. As to conditions: pooled human liver microsomes; tolbutamide methyl-hydroxylation; given as 'five kinds'.
Chain of CYP2C9 (P11712 whole entry): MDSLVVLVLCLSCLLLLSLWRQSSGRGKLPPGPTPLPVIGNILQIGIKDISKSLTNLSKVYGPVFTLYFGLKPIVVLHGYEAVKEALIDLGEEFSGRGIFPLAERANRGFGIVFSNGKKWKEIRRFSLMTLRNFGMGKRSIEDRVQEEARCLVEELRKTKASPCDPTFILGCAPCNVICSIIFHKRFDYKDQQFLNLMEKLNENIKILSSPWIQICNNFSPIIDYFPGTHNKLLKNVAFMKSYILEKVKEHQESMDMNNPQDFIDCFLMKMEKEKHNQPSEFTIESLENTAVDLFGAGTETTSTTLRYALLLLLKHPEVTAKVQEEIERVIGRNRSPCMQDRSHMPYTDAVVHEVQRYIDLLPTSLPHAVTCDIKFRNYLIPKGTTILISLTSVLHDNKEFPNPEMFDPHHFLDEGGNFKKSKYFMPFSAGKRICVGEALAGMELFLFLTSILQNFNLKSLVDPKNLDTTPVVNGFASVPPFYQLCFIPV
Source text: as §1

The target in a further data set is CYP2C19 (Homo sapiens (Human), UniProt P33261). As to the kind of experiment: CYP inhibition test, CYP2C19. It is filed as in vitro ADME. The settings on record: pooled human liver microsomes; mephenytoin 4′-hydroxylation; given as 'five kinds'.
Chain of CYP2C19 (P33261 whole entry): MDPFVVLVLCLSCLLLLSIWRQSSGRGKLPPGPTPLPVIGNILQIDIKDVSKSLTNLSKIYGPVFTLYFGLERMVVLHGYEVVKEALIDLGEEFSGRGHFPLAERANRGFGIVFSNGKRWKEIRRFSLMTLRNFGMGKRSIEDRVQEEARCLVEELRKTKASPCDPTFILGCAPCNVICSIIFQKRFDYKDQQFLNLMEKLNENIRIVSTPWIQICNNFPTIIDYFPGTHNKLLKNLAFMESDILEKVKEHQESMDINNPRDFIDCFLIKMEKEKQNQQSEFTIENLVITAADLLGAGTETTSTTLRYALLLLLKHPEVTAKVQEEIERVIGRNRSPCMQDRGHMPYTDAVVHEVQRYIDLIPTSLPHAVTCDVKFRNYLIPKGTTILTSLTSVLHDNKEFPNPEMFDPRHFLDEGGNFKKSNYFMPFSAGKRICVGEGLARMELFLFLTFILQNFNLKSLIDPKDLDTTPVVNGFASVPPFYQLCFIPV
Source text: as §1

Another data set concerns the target CYP2D6 (Homo sapiens (Human), UniProt P10635). Nature of the data set: CYP inhibition test, CYP2D6. As to conditions: pooled human liver microsomes; dextromethorphan O-demethylation; given as 'five kinds'. The class given is in vitro ADME.
Source text: as §1

Another data set addresses CYP3A4 (Homo sapiens (Human), UniProt P08684). As to the kind of experiment: CYP inhibition test, CYP3A4. It is filed as in vitro ADME. As to conditions: pooled human liver microsomes; terfenadine hydroxylation; given as 'five kinds'.
Source text: as §1

Data set [3] is described as follows: BA test (oral absorption). The class given is in vivo. The settings on record: plasma; mice or SD rats; from AUCs of oral and intravenous administration. The method, then:
Materials and methods for experiments to evaluate oral absorption
(1) Animals: the mice or SD rats were used.
(2) Breeding conditions: the mice or SD rats were allowed to freely take solid food and sterilized tap water.
(3) Setting of dosage and grouping: Oral administration and intravenous administration were performed with a predetermined dosage. Grouping was set as below. (dosage changed per compound)
Oral administration: 1 to 30 mg/kg (n=2 to 3)
Intravenous administration: 0.5 to 10 mg/kg (n=2 to 3)
(4) Preparation of administration solution: Oral administration was performed in the form of a suspension or a solution. Intravenous administration was performed after solubilization.
(5) Routes of administration: Oral administration was performed mandatory into the stomach by oral sonde. Intravenous administration was performed from caudal vein or femoral vein by syringes with needle.
(6) Evaluation items: blood was collected over time, and the plasma concentration of the compound of the present invention was measured by LC/MS/MS.
(7) Statistical analysis: regarding the transition of the plasma concentration of the compound of the present invention, the area under the plasma concentration-time curve (AUC) was calculated by non-linear least squares program WinNonlin (registered trademark), and the bioavailability (BA) of the compound of the present invention was calculated from the AUCs of the oral administration group and intravenous administration group.

The target in the next data set is hERG (IKr) (Homo sapiens (Human), UniProt Q12809). As to the kind of experiment: hERG test. The class given is cell-based. As to conditions: CHO cells expressing hERG channel, pH 7.4, 10 μmol/L of test compound, read-out: % inhibition of hERG tail peak current (IKr). The text has this:
For the purpose of assessing risk of an electrocardiogram QT interval prolongation of the compound of the present invention, effects of the compound of the present invention on delayed rectifier K^+ current (IKr), which plays an important role in the ventricular repolarization process, was studied using CHO cells expressing human ether-a-go-go related gene (hERG) channel.
After a cell was retained at a membrane potential of −80 mV by whole cell patch clamp method using an automated patch clamp system (QPatch; Sophion BIoscience A/S), IKr induced by application of a leak potential of −50 mV followed by depolarization pulse stimulation at +20 mV for 2 seconds and, further, repolarization pulse stimulation at −50 mV for 2 seconds, was recorded. […] From the recording IKr, an absolute value of the tail peak current was measured based on the current value at the resting membrane potential using analysis software (Falster Patch; Sophion Bioscience A/S). Further, the % inhibition of tail peak current for the compound of the present invention relative to the tail peak current after application of the vehicle is calculated to assess influence of the compound of the present invention on IKr.
(hERG is a cardiac potassium channel; its block is linked to QT prolongation.)

For a further data set, the target named is recombinant human MGAT2 (Homo sapiens (Human), UniProt Q3SYC2). Nature of the data set: Measurement of human MGAT2 inhibitory activity. As to conditions: concentration exhibiting 50% enzyme inhibition; recombinant human MGAT2, 2-Oleoylglycerol/Oleoyl-CoA. The class given is biochemical. The gist of the method:
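Membrane fraction of baculovirus-infected Sf-9 cells expressing N-terminally Flag-tagged full-length human MGAT2, in 100 mmol/L phosphate pH 7.4 with 2 mmol/L DTT. The substrate solution held 30 μmol/L 2-oleoylglycerol and 10 μmol/L oleoyl-CoA. After 1 h at room temperature, diolein/diolein-d5 ratio was read by ESI Q-TOF MS and % inhibition derived against enzyme and no-enzyme controls.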

The nature of the next data set: Solution stability test. As to conditions: 18 hr. The class given is physicochemical. The method, then:
The compound of the present invention (0.4 mg) was weighed into a 4 mL screw vial, and 2 mL of various media pH=1 (0.1 N HClaq.+30% MeCN), pH=7 (pH 7 phosphate Buffer (100 mM+30% MeCN) or pH=9 (pH 9 carbonate Buffer (100 mM+30% MeCN) was added, respectively. Complete dissolution was confirmed. If not dissolved, filtration was performed with a 0.45 μm filter. The solution or filtrate was placed in an HPLC vial. HPLC sample cooler was set at 40° C., and sequence was set so that sampling was performed by HPLC at 0, 3, 6, 9, 12, 15, and 18 hours. Stability over time was evaluated by setting the area value of 0 hr product to 100%.

Chain of hERG (IKr) (Q12809 whole entry): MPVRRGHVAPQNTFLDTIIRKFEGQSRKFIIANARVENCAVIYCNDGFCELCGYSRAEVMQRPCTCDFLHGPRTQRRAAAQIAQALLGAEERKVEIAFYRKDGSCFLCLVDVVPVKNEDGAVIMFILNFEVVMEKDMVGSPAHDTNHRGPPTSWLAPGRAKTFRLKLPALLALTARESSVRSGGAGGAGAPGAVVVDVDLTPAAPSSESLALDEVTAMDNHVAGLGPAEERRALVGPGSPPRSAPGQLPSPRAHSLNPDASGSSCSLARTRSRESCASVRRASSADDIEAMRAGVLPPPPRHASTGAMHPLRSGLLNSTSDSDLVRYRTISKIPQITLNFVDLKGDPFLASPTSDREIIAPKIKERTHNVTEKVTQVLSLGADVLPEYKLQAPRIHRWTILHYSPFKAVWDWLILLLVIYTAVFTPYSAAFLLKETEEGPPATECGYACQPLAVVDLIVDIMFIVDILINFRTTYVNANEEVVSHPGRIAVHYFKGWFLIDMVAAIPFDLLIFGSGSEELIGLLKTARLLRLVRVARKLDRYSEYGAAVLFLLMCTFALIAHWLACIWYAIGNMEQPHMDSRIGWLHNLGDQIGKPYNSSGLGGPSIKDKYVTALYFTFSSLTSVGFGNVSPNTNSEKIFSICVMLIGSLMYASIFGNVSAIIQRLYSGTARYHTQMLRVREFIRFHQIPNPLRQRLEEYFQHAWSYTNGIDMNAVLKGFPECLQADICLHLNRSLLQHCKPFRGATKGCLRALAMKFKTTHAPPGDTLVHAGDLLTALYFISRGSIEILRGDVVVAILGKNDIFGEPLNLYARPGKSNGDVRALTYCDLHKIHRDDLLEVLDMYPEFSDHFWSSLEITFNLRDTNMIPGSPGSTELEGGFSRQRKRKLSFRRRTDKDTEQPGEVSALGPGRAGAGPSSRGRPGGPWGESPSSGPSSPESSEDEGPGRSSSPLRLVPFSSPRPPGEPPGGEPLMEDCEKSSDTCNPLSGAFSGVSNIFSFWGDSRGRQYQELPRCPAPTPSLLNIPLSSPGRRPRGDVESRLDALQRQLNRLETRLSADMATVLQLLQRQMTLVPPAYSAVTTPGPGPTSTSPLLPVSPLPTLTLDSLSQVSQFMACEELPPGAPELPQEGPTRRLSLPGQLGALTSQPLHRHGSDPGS
Chain of CYP3A4 (P08684 whole entry): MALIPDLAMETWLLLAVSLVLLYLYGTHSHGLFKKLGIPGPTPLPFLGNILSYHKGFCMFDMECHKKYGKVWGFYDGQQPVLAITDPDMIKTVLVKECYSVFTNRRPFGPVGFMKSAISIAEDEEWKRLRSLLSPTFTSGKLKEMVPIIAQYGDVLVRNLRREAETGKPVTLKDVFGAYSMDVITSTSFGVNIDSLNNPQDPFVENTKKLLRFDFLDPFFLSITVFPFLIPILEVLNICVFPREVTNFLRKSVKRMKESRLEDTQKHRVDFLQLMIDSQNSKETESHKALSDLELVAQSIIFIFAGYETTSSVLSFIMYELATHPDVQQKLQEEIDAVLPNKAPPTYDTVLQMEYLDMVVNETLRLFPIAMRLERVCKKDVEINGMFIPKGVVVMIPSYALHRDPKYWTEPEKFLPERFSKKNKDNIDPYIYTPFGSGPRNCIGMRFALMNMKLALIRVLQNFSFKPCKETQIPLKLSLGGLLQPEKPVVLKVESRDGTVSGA
Chain of CYP2D6 (P10635 whole entry): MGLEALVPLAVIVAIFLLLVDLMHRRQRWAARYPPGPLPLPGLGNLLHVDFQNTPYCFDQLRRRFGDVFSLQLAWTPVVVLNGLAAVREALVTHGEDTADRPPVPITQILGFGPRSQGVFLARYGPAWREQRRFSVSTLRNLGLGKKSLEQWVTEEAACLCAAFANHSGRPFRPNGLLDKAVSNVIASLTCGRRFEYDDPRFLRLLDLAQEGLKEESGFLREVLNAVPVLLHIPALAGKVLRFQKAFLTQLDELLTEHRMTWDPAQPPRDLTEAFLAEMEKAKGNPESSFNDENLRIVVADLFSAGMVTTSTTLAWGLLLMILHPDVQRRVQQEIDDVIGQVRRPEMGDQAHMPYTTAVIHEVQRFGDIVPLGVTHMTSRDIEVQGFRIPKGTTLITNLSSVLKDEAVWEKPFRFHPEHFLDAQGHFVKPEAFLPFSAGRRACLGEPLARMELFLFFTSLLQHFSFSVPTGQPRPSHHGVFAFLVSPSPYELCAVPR
Chain of recombinant human MGAT2 (Q3SYC2 whole entry): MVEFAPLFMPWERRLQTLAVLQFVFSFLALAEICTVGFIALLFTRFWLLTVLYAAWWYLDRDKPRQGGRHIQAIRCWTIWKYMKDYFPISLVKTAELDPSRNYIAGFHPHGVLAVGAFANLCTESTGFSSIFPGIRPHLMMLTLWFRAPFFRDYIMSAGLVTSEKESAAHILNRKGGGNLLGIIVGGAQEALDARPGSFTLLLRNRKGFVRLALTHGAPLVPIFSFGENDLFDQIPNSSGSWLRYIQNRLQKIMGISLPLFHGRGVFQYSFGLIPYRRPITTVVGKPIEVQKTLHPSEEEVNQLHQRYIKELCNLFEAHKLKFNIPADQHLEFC

By solubility is commonly meant how much of the substance goes into solution per volume. The low end stands for little dissolved substance, the high end for much dissolved substance. What is called IC50 is the concentration that gives 50% inhibition. As usually defined, the bioavailability is the share of a dose that reaches the circulation, judged against a reference dose that is usually intravenous. One may read the inhibition as the share of the control response that was lost under treatment. In the case of `CS(=O)(=O)CC(=O)Nc1c(-c2ccc(Cl)cn2)nn2c1C(=O)N[C@@]1(CCc3cc(F)cc(F)c31)C2` [Compound I-142], in data set [1], the Remaining rate is given as 106%. This molecule also yielded a solubility at 16 h in data set [2] of more than 50 µM. In addition, the IC50 at CYP1A2, at CYP2C9, on CYP2C19, on CYP2D6 and against CYP3A4 was more than 20 µM in each case. The molecule also gave a bioavailability in data set [3] of 66.2%. For the same molecule, the inhibition at 10 min, 10 μmol/L on hERG (IKr) is 10.6%.
Regarding `CS(=O)(=O)CC(=O)Nc1c(-c2ccc(Cl)cn2)nn2c1C(=O)N[C@@]1(CCOc3cc(F)cc(F)c31)C2` [Compound I-137], in data set [1], the Remaining rate is recorded as 101%. The solubility at 16 h in [2] is more than 50 µM. In data set [3], this molecule had a bioavailability of 49%. Besides, the inhibition at 10 min, 10 μmol/L on hERG (IKr) came to 23.6%.
For the molecule `CS(=O)(=O)CC(=O)Nc1c(-c2ccc(F)c(F)c2)nn2c1C(=O)N[C@@]1(CCc3cc(OCC(F)(F)F)ccc31)C2` [Compound I-33], in data set [1], the Remaining rate was 98.5%. In addition, the IC50 against CYP1A2, on CYP2C9, on CYP2C19, on CYP2D6 and on CYP3A4 was more than 20 µM in each case. Moreover, in data set [3], the bioavailability was found to be 60.5%. Besides, the inhibition at 10 min, 10 μmol/L on hERG (IKr) worked out at 21.3%.
Consider `CS(=O)(=O)CC(=O)Nc1c(-c2ccc(C3CC3)cn2)nn2c1C(=O)N[C@@]1(CCc3cc(F)cc(F)c31)C2` [Compound I-141], for which the Remaining rate in [1] amounted to 99.4%. Besides, the concentration in solution in data set [2] (solubility at 16 h) came to 48.9 µM (≈ 25.8 µg/mL). Moreover, the IC50 on CYP1A2, against CYP2C9, against CYP2C19, against CYP2D6 and against CYP3A4 was more than 20 µM each time. For the same molecule, the bioavailability in [3] amounted to 67%. At hERG (IKr), the inhibition at 10 min, 10 μmol/L was 14%.
`CS(=O)(=O)CC(=O)Nc1c(-c2ccc(C#N)cn2)nn2c1C(=O)N[C@@]1(CCc3cc(OCC(F)(F)F)ccc31)C2` [Compound I-3]: the IC50 at recombinant human MGAT2 was determined as 0.00199 µM. Also, the Residual rate in the data set “Solution stability test” (pH=1, 40° C.) came out at 100.2%; in the data set “Solution stability test” (pH=7, 40° C.), 100.9%; in “Solution stability test” (pH=9, 40° C.), 100.2%.
